Assay results from patent publication US6653478B2, “Substituted benzimidazol-2-ones as vasopressin receptor antagonists and neuropeptide Y modulators” (Ortho-McNeil Pharmaceutical, Inc., priority 2000, dated 2003).
Counter-ions that a name gives are not always drawn.

How the values were obtained:
human V2 receptor = human V2 receptor (Homo sapiens, UniProt P30518); experiment: V2 binding assay (3H-AVP displacement, HEK-293 membranes); design: expressed in transfected cells; host or cells: HEK-293 (membranes); settings: for inhibition at 1 µM: read-out: V2@1.0, % Inh
Procedure, shortened: (§1)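 Membranes from transfected HEK-293 cells incubated 1 h at room temperature with ³H-AVP (10,000 cpm) in 50 mM Tris, 5 mM MgCl2, 0.1% BSA, pH 7.5 plus protease inhibitors. Non-specific binding set with 1.25 μM AVP. Bound tracer collected on PEI-soaked GF/C filters and counted by scintillation.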

human V1b receptor = target: T1, human V1b receptor (Homo sapiens, UniProt P47901); experiment: V1b binding assay (3H-AVP displacement, HEK-293 membranes); design: expressed in transfected cells; host or cells: HEK-293 (membranes); settings: for inhibition at 10 µM: read-out: V1b % Inh @10
T1 sequence (P47901 1-424): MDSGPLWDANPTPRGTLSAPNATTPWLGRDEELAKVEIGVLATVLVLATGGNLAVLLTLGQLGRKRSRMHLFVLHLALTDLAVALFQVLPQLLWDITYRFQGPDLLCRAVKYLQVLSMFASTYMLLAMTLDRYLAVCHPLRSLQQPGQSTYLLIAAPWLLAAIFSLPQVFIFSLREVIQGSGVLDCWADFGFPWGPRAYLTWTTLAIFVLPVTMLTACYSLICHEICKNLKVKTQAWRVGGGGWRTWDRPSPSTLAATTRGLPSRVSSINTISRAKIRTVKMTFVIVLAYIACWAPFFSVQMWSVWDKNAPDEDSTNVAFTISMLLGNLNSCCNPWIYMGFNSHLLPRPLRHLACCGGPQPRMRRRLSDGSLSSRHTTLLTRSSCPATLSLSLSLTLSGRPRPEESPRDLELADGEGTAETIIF
Procedure, shortened: as §1

NPY2 receptors = target: T2, NPY2 receptors (Homo sapiens, UniProt P49146); experiment: Neuropeptide Y receptor binding assay (125I-PYY, KAN-TS cell membranes); settings: 10 μM compound; for inhibition at 10 µM: read-out: NPY-2@10, % Inh
T2 construct: Cell Membranes from KAN-TS cells having NPY2 receptors; endogenous in cells; host or cells: KAN-TS cells (membranes)
T2 sequence (P49146 1-381): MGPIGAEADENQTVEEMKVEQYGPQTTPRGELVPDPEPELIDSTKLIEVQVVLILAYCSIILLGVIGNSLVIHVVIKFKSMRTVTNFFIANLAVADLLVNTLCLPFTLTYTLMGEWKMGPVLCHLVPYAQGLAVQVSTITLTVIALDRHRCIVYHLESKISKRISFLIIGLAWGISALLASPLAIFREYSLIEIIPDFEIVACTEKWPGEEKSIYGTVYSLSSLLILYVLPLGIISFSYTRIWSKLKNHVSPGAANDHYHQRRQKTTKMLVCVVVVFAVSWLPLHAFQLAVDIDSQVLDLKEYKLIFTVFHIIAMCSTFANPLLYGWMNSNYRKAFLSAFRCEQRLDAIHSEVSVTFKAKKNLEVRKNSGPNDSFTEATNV
Procedure, shortened: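 Membranes from KAN-TS cells competed with 125I-PYY in binding buffer containing BSA, test compound at 10 μM final, 1 hr at room temperature. Nonspecific binding defined with 1 μM PYY final. Tubes centrifuged, washed with PBS and bound radioactivity gamma-counted.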

| Compound | V2@1.0, % Inh (human V2 receptor; 1.0 μM compound) [%] | V1b % Inh @10 (human V1b receptor; 10 μM compound) [%@10] | NPY-2@10, % Inh (NPY2 receptors) [%] | inhibition at 1 µM (human V2 receptor; 1.0 μM compound) [%] | inhibition at 1 µM (human V1b receptor; 1.0 μM compound, read-out: V1b@1.0, % Inh) [%] | inhibition at 10 µM (NPY2 receptors) [%] | inhibition at 10 µM (human V1b receptor; 10 μM compound) [%] | IC50 (human V2 receptor) [µM] | IC50 (human V1b receptor) [µM] |
| --- | --- | --- | --- | --- | --- | --- | --- | --- | --- |
| 1-[(N1-Piperidinocarbothioyl-(1-L-carboxymethyl-2-phenylamino)-4-yl]-3-(3-aminopropyl)-1,3-dihydrobenzimidazol-2-one Hydrochloride [Compound 57] | 0 | 25 | 20 |  |  |  |  |  |  |
| CCN(CC)CCn1c(=O)n(C2CCN(C(=S)NC(c3ccccc3)c3ccccc3)CC2)c2ccccc21 [Compound 35, 1-(N1-Piperidinocarbothioyldiphenylmethylamino-4-yl)-3-(2-diethyaminoethyl)-1,3-dihydrobenzimidazol-2-one] |  |  |  | 44 | 47 | 74 |  |  |  |
| CCN(CC)CCn1c(=O)n(C2CCN(C(=S)NC(Cc3ccccc3)C(=O)OC)CC2)c2ccccc21 [Compound 42, 1-(N1-Piperidinocarbothioyl-(2-phenyl-1-L-carboxymethyl)amino-4-yl)-3-(2-diethyaminoethyl)-1,3-dihydrobenzimidazol-2-one] |  |  |  | 0 |  | 10 | 37 |  |  |
| NCCCn1c(=O)n(C2CCN(C(=S)NC(c3ccccc3)c3ccccc3)CC2)c2ccccc21 [Compound 55, 1-[(N1-Piperidinocarbothioyldiphenylmethylamino)-4-yl]-3-(3-aminopropyl)-1,3-dihydrobenzimidazol-2-one Monohydrochloride] |  |  |  |  |  | 82 |  | 1.25 | 5.1 |
| N=C(N)NCCCn1c(=O)n(C2CCN(C(=S)NC(c3ccccc3)c3ccccc3)CC2)c2ccccc21 [Compound 59, 1-[(N1-Piperidinocarbothioyldiphenylmethylamino)-4-yl]-3-(3-guanidinopropyl)-1,3-dihydrobenzimidazol-2-one] |  |  |  | 18 |  | 90 | 62 |  | 4.1 |
